Among the data in article PMC12579162, “Synthesized Depside Molecules Suppress the Progression of Colorectal Cancer by Binding VDAC1/PHB/MMP9 Being at the Crossroads of Stemness, Motility, Apoptosis, and Metabolism” (MedComm, 2025) are IC50 and spheroid formation values, retold here.

Holding throughout (assay type): cell-based
Assay [1] concerns HT29 cells. Kind of assay: MTT cell viability, HT29. The following applies: Homo sapiens, HT-29; 48 h, MTT assay. As to the method:
(§1) Cells (3 × 10^3 cells/well) were seeded on a 96‐well plate, grown overnight, and then treated with compounds at indicated concentrations for 48 h. After incubation with MTT for 4 h at 37°C, cells were lysed with 150 µL of DMSO (Sigma–Aldrich, St. Louis, USA). Absorbance was measured at 570 nm on a microplate reader with the Gen5 software (v.2.03.1; BioTek, Winooski, VT, USA).
For orientation: Tetrazolium dyes change colour on reduction, which living cells bring about.

The subject of assay [2] is SW620 cells. Kind of assay: MTT cell viability, SW620. The following applies: Homo sapiens, SW-620; 48 h, MTT assay. As to the method: as §1
Assay [3] relates to DLD1 cells. Kind of assay: MTT cell viability, DLD1. The following applies: Homo sapiens, DLD-1; 48 h, MTT assay. The protocol:
as §1

Assay [4] deals with CSC221 cells. In words: MTT cell viability, CSC221. The following applies: Homo sapiens; 48 h, MTT assay. As to the method:
as §1

The test system of assay [5] is CT26 cells. In words: MTT cell viability, CT26. The following applies: Mus musculus, 48 h, MTT assay. The protocol:
as §1

Assay [6] relates to MCF10A cells. In words: MTT cell viability, MCF10A. The following applies: Homo sapiens, MCF-10A; 48 h, MTT assay. The protocol: as §1
Assay [7] has as its system HEK293T cells. In words: MTT cell viability, HEK293T. The following applies: Homo sapiens, HEK-293T; 48 h, MTT assay. The protocol:
as §1

The test system of assay [8] is HCT116 cells. In words: MTT cell viability, HCT116. The following applies: Homo sapiens, HCT-116; 48 h, MTT assay. The protocol:
as §1

Assay [9] deals with CaCo2 cells. Kind of assay: MTT cell viability, CaCo2. The following applies: Homo sapiens, Caco-2; 48 h, MTT assay. As to the method:
as §1

Assay [10] relates to BEAS-2B cells. In words: MTT cell viability, BEAS-2B. The following applies: Homo sapiens, 48 h, MTT assay. As to the method:
as §1

For assay [11], the system named is HaCaT cells. In words: MTT cell viability, HaCaT. The following applies: Homo sapiens, 48 h, MTT assay. As to the method: as §1
Assay [12] concerns spheroid formation. Kind of assay: Spheroid formation, comparison with known MMP inhibitor (Figure S10). The following applies: 10 µM, 10–14 days. The protocol: Monolayer cells were separated into single‐cell suspensions at around 70% confluence using a solution of trypsin. After that, the cells were added to N2‐supplemented DMEM/F12 that contained human basal fibroblast growth factor and human recombinant epidermal growth factor. Cells seeded at a density of 5 × 10^3 cells/well in ultra‐low attachment 24‐well plates (Corning Inc., Corning, NY, USA). After 10–14 days of culture, spheres were quantitated by inverted phase contrast microscopy. The relative sphere formation ability was calculated through the IMT iSolution software (IMT iSolution Inc., Northampton, NJ, USA) measuring the pixel intensity of the sphere area randomly in each plate.
Supplementary Figure S10. Comparison of the effects of novel VDAC1/PHB/MMP9 binding compounds and known MMP inhibitor on spheroid formation. Cells were exposed to the compound at 5 μM concentration of SB4 or SB5 and 10 μM of MMP inhibitor (GM 6001, ilomastat) for 10-14 days. The histogram represents spheroid formation, calculated as rate relative to vehicle-treated control, and represented as bar graphs. *p < 0.05; **p < 0.01; ***p < 0.001; NS, no significant difference between compared groups.

The structures appear in SMILES notation.

On to `COc1cc(C)c(C(=O)Oc2cc(C)c(C(=O)O)c(O)c2C)c(OC)c1C` [DA, diffractaic acid, reference compound], for which the half-maximal inhibitory concentration (IC50) in assay [1] was determined as 62.8 µM; in assay [2], 46.2 µM; in assay [3], 64.1 µM; in [4], 133 µM; in assay [5], 46.2 µM; in [6], 146 µM. Further, the 50% inhibitory concentration (IC50) was found to be 121 µM in assay [7]; 49.1 µM in [8]; 90.5 µM in assay [9]; 54.3 µM in assay [10]; 84.2 µM in assay [11].

In the case of `CNC(=O)[C@H](Cc1c[nH]c2ccccc12)NC(=O)[C@@H](CC(=O)NO)CC(C)C` [GM 6001, ilomastat], the spheroid formation result in [12] was “no effect on inhibition of spheroid formation”.

In general, IC50 refers to the concentration that gives 50% inhibition. Read a high IC50 as lower potency.
